Results as given in patent publication US8324190B2, “Treatment of proliferative disorders with amino-substituted (E)-2,6- dialkoxystyryl 4-substituted benzylsulfones” (Temple University—Of The Commonwealth System of Higher …, priority 2002, dated 2012).
Where a name gives a salt, the structure may show the parent alone.

Columns and labels:
Test in all cases: Tumor cell viability assay, Trypan blue exclusion
Type in all cases: cell-based
Details in all cases: cell viability after 96 hours
[1] = tested on: colorectal carcinoma cell line DLD-1
Procedure: (§1) BT-20 is an estrogen-unresponsive cell line. NIH/3T3 and HFL are normal murine and human fibroblasts, respectively. BT-20, DLD-1 and H157 were grown in Dulbecco's modified Eagle's medium (DMEM) containing 10% fetal bovine serum supplemented with penicillin and streptomycin. DU145 was cultured in RPMI with 10% fetal bovine serum containing penicillin and streptomycin. NIH3T3 and HFL cells were grown in DMEM containing 10% calf serum supplemented with penicillin and streptomycin. Cells were plated at density levels of 1.0×10^5 cells per well in six-well plates. Cell cultures were maintained at 37° C. in a humidified atmosphere of 5% CO2. Cells were treated with compounds of the invention at various concentrations. Cell viability was determined after 96 hours by the Trypan blue exclusion method. […] The number of viable cells remaining after 96 hours of treatment was determined using hemacytometer following trypan blue staining. The number of viable cells has been plotted as the percent of Vehicle treated (control) cells.

[2] = tested on: prostate carcinoma cell line DU-145
Procedure: as §1

[3] = tested on: non-small cell lung carcinoma cell line H157
Procedure: as §1

[4] = tested on: breast adenocarcinoma cell line BT-20
Procedure: as §1

Measured: IC50

CC[N+](CC)(CC)CC(=O)Nc1cc(CS(=O)(=O)/C=C/c2c(OC)cc(OC)cc2OC)ccc1OC [Example 28, (E)-2,4,6-trimethoxystyryl-3-(triethylammoniumacetamido)-4-methoxybenzylsulfone]
< 10 µM: all assays above

COc1cc(OC)c(/C=C/S(=O)(=O)Cc2ccc(OC)c(NC(=O)C[N+](CCO)(CCO)CCO)c2)c(OC)c1 [Example 29, (E)-2,4,6-trimethoxystyryl-3-[tri-(2-hydroxyethyl)ammonium]-acetamido-4-methoxybenzylsulfone]
< 10 µM: all assays above

COc1cc(OC)c(/C=C/S(=O)(=O)Cc2ccc(OC)c(NC(=O)C(C)(C)O)c2)c(OC)c1 [Example 30, (E)-2,4,6-trimethoxystyryl-3-(2-methyl-2-hydroxypropion-amido)-4-methoxybenzylsulfone]
< 10 µM: all assays above

COc1cc(OC)c(/C=C/S(=O)(=O)Cc2ccc(OC)c(NC(=O)C(C)(C)OC(C)=O)c2)c(OC)c1 [Example 31, (E)-2,4,6-trimethoxystyryl-3-(2-methyl-2-acetoxypropionamido)-4-methoxybenzyl-sulfone]
< 10 µM: all assays above

COc1cc(OC)c(/C=C/S(=O)(=O)Cc2ccc(OC)c(NC(=O)C(F)(F)F)c2)c(OC)c1 [Example 32, (E)-2,4,6-trimethoxystyryl-3-(trifluoroacetamido)-4-methoxy-benzylsulfone]
< 10 µM: all assays above

COc1cc(OC)c(/C=C/S(=O)(=O)Cc2ccc(OC)c(NS(=O)(=O)C(F)(F)F)c2)c(OC)c1 [Example 33, (E)-2,4,6-trimethoxystyryl-3-(trifluoromethanesulfonamido)-4-methoxy-benzylsulfone]
< 10 µM: all assays above

COc1cc(OC)c(/C=C/S(=O)(=O)Cc2ccc(OC)c(NC(=O)CCC(=O)O)c2)c(OC)c1 [Example 34, (E)-2,4,6-trimethoxystyryl-3-(succinamido)-4-methoxybenzyl-sulfone]
< 10 µM: all assays above

COc1cc(OC)c(/C=C/S(=O)(=O)Cc2ccc(OC)c(NC(=O)CC(Cl)C(=O)O)c2)c(OC)c1 (stereo not drawn) [Example 35, (E)-2,4,6-trimethoxystyryl-3-(3-chlorosuccinamido)-4-methoxy-benzylsulfone]
< 10 µM: all assays above

COc1cc(OC)c(/C=C/S(=O)(=O)Cc2ccc(OC)c(NC(=O)COC(=O)CCC(=O)O)c2)c(OC)c1 [Example 36, (E)-2,4,6-trimethoxystyryl-3-[3-(3-carboxypropanoyloxy)-acetamido]-4-methoxybenzylsulfone]
< 10 µM: all assays above

COc1cc(OC)c(/C=C/S(=O)(=O)Cc2ccc(OC)c(NC(=O)CCCC(=O)O)c2)c(OC)c1 [Example 37, (E)-2,4,6-trimethoxystyryl-3-(glutaramido)-4-methoxybenzyl-sulfone]
< 10 µM: all assays above

COc1cc(OC)c(/C=C/S(=O)(=O)Cc2ccc(OC)c(NC(=O)CP(=O)(O)O)c2)c(OC)c1 [Example 38, (E)-2,4,6-trimethoxystyryl-3-(phosphonatoacetamido)-4-methoxybenzylsulfone, disodium salt]
< 10 µM: all assays above

COc1cc(OC)c(/C=C/S(=O)(=O)Cc2ccc(OC)c(NCCCC(=O)O)c2)c(OC)c1 [Example 39, (E)-2,4,6-trimethoxystyryl-3-(3-carboxypropylamino)-4-methoxybenzylsulfone]
< 10 µM: all assays above

COc1cc(OC)c(/C=C/S(=O)(=O)Cc2ccc(OC)c(NCCC(=O)O)c2)c(OC)c1 [Example 40, (E)-2,4,6-trimethoxystyryl-3-(2-carboxyethylamino)-4-methoxy-benzylsulfone]
< 10 µM: all assays above

COC(=O)Nc1cc(CS(=O)(=O)/C=C/c2c(OC)cc(OC)cc2OC)ccc1OC [Example 41, (E)-2,4,6-trimethoxystyryl-3-(methoxycarbonylamino)-4-methoxy-benzylsulfone]
< 10 µM: all assays above

COc1ccc(S(=O)(=O)Nc2cc(CS(=O)(=O)/C=C/c3c(OC)cc(OC)cc3OC)ccc2OC)cc1 [Example 42, (E)-2,4,6-trimethoxystyryl-3-(4-methoxybenzenesulfamyl)-4-methoxybenzylsulfone]
< 10 µM: all assays above

COc1cc(OC)c(/C=C/S(=O)(=O)Cc2ccc(OC)c(NC(=O)C(C)OC(C)=O)c2)c(OC)c1 (stereo not drawn) [Example 43, (E)-2,4,6-trimethoxystyryl-3-(2-acetoxypropionamido)-4-methoxybenzylsulfone]
< 10 µM: all assays above

COC(=O)CCC(=O)Nc1cc(CS(=O)(=O)/C=C/c2c(OC)cc(OC)cc2OC)ccc1OC [Example 44, (E)-2,4,6-trimethoxystyryl-3-(methylsuccinamido)-4-methoxy-benzylsulfone]
< 10 µM: all assays above

COc1cc(OC)c(/C=C/S(=O)(=O)Cc2ccc(OC)c(NC(=O)C(F)(F)C(F)(F)F)c2)c(OC)c1 [Example 46, (E)-2,4,6-trimethoxystyryl-3-(pentafluoropropionamido)-4-methoxybenzylsulfone]
< 10 µM: all assays above

COC(=O)C(F)(F)C(=O)Nc1cc(CS(=O)(=O)/C=C/c2c(OC)cc(OC)cc2OC)ccc1OC [Example 47, (E)-2,4,6-trimethoxystyryl-3-(methyl-2,2-difluoromalonamido)-4-methoxybenzylsulfone]
< 10 µM: all assays above

COc1cc(OC)c(/C=C/S(=O)(=O)Cc2ccc(OC)c(NC(=O)C(F)(F)C(F)(F)C(=O)O)c2)c(OC)c1 [Example 48, (E)-2,4,6-Trimethoxystyryl-3-(2,2,3,3,tetrafluorosuccinamido)-4-methoxybenzylsulfone]
< 10 µM: all assays above

COc1cc(OC)c(/C=C/S(=O)(=O)Cc2ccc(OC)c(NC(=O)CN)c2)c(OC)c1 [Example 49, (E)-2,4,6-Trimethoxy-styryl-3-(aminoacetamido)-4-methoxy-benzylsulfone, hydrochloride]
< 10 µM: all assays above

(E)-2,4,6-Trimethoxystyryl-3-amino-4-methoxybenzylsulfone-D-serineamide [Example 15]
< 10 µM: all assays above

(E)-2,4,6-Trimethoxystyryl-3-amino-4-methoxybenzylsulfone-L-lysineamide [Example 13]
< 10 µM: all assays above

(E)-2,4,6-Trimethoxystyryl-3-amino-4-methoxybenzylsulfone-L-serineamide [Example 14]
< 10 µM: all assays above
